melting point [°C] | SMILES
125.1 to 127 | Cc1cc(CC(=O)Nc2ccccc2Cl)cc(C(=O)c2ccccc2Cl)c1 [Compound I-259, 2-[3-(2-Chloro-benzoyl)-5-methyl-phenyl]-N-(2-chloro-phenyl)-acetamide]
218 to 218.7 | Cc1ccc(CC(=O)Nc2ccc(S(N)(=O)=O)cc2Cl)c(F)c1Oc1cc(C#N)cc(C(F)F)c1 [Compound I-84, N-(2-Chloro-4-sulfamoyl-phenyl)-2-[3-(3-cyano-5-difluoromethyl-phenoxy)-2-fluoro-4-methyl-phenyl]-acetamide]
222.5 to 224 | CC(=O)Nc1cc(C)c(NC(=O)Cc2ccc(C)c(Oc3cc(Cl)cc(C#N)c3)c2)cn1 [Compound I-228, N-(6-Acetylamino-4-methyl-pyridin-3-yl)-2-[3-(3-chloro-5-cyano-phenoxy)-4-methyl-phenyl]-acetamide]
137.9 to 138.8 | Cc1ccc(CC(=O)Nc2ncccc2C)cc1Oc1cc(Cl)cc(C#N)c1 [Compound I-225, 2-[3-(3-Chloro-5-cyano-phenoxy)-4-methyl-phenyl]-N-(3-methyl-pyridin-2-yl)-acetamide]
184.8 to 186 | Cc1cc(CC(=O)Nc2ccc(S(N)(=O)=O)cc2C)cc(Oc2cc(Cl)cc(C#N)c2)c1 [Compound I-142, 2-[3-(3-Chloro-5-cyano-phenoxy)-5-methyl-phenyl]-N-(2-methyl-4-sulfamoyl-phenyl)-acetamide]
155.5 to 155.8 | CCc1ccc(CC(=O)Nc2ccccc2Cl)cc1Oc1cc(Br)cc(Br)c1Cl [Compound I-38, N-(2-Chloro-phenyl)-2-[3-(3,5-dibromo-2-chloro-phenoxy)-4-ethyl-phenyl]-acetamide]
223.3 to 225 | Cl.N#Cc1cc(Cl)cc(Oc2c(Cl)ccc(CC(=O)Nc3ccc(S(=O)(=O)NC(=O)CN4CCOCC4)cc3Cl)c2F)c1
180.5 to 181.3 | COc1cc(CC(=O)Nc2ccc(S(N)(=O)=O)cc2)cc(Oc2cc(C#N)ccc2Cl)c1 [Compound I-102, 2-[3-(2-Chloro-5-cyano-phenoxy)-5-methoxy-phenyl]-N-(4-sulfamoyl-phenyl)-acetamide]
200.5 to 203.5 | Cc1cc(S(N)(=O)=O)ccc1NC(=O)Cc1ccc(C)c(Oc2cc(Cl)ccc2Br)c1 [Compound I-31, 2-[3-(2-Bromo-5-chloro-phenoxy)-4-methyl-phenyl]-N-(2-methyl-4-sulfamoyl-phenyl)-acetamide]
179.9 to 182 | Cc1ccc(CC(=O)Nc2ccc(S(C)(=O)=O)cc2Cl)c(F)c1Oc1cc(C#N)cc(C(F)F)c1 [Compound I-112, N-(2-Chloro-4-methanesulfonyl-phenyl)-2-[3-(3-cyano-5-difluoromethyl-phenoxy)-2-fluoro-4-methyl-phenyl]-acetamide]
194.1 to 195.9 | Cc1cc(CC(=O)Nc2ccc(S(N)(=O)=O)cc2Cl)cc(Oc2cc(Cl)cc(C#N)c2)c1 [Compound I-143, 2-[3-(3-Chloro-5-cyano-phenoxy)-5-methyl-phenyl]-N-(2-chloro-4-sulfamoyl-phenyl)-acetamide]
247 to 249.9 | NS(=O)(=O)c1ccc(NC(=O)Cc2ccc(Cl)c(Oc3cc(Cl)cc(Cl)c3Cl)c2F)cc1 [Compound I-10, 2-[4-Chloro-2-fluoro-3-(2,3,5-trichloro-phenoxy)-phenyl]-N-(4-sulfamoyl-phenyl)-acetamide]
224.3 to 225.7 | Cc1cc(CC(=O)Nc2ccc(S(N)(=O)=O)cc2Cl)cc(Oc2cc(Cl)cc(C#N)c2)c1C [Compound I-184, 2-[3-(3-Chloro-5-cyano-phenoxy)-4,5-dimethyl-phenyl]-N-(2-chloro-4-sulfamoyl-phenyl)-acetamide]
190 to 193.4 | CCc1ccc(CC(=O)Nc2ccc(S(N)(=O)=O)cc2)cc1Oc1cc(Cl)ccc1Cl [Compound I-19, 2-[3-(2,5-Dichloro-phenoxy)-4-ethyl-phenyl]-N-(4-sulfamoyl-phenyl)-acetamide]
212.9 to 214.4 | Cc1cc(CC(=O)Nc2ccc(S(N)(=O)=O)cc2Cl)cc(Oc2cc(C#N)ccc2Cl)c1 [Compound I-148, 2-[3-(2-Chloro-5-cyano-phenoxy)-5-methyl-phenyl]-N-(2-chloro-4-sulfamoyl-phenyl)-acetamide]
219.3 to 221.5 | NS(=O)(=O)c1ccc(NC(=O)Cc2ccc(Cl)c(Cc3cc(Cl)ccc3Cl)c2)c(Cl)c1 [Compound I-209, 2-[4-Chloro-3-(2,5-dichloro-benzyl)-phenyl]-N-(2-chloro-4-sulfamoyl-phenyl)-acetamide]
247.9 to 250.9 | N#Cc1cc(C#N)cc(Sc2cc(CC(=O)Nc3ccc(S(N)(=O)=O)cc3)ccc2Cl)c1 [Compound I-242, 2-[4-Chloro-3-(3,5-dicyano-phenylsulfanyl)-phenyl]-N-(4-sulfamoyl-phenyl)-acetamide]
185 to 187.9 | COc1ccc(CC(=O)Nc2ccc(S(N)(=O)=O)cc2Cl)cc1Oc1cc(C#N)cc(C(F)F)c1 [Compound I-94, N-(2-Chloro-4-sulfamoyl-phenyl)-2-[3-(3-cyano-5-difluoromethyl-phenoxy)-4-methoxy-phenyl]-acetamide]

melting point [°C] | SMILES
220 to 222.3 | NS(=O)(=O)c1ccc(NC(=O)Cc2ccc(Cl)c(Sc3cc(Cl)ccc3Br)c2)cc1 [Compound I-243, 2-[3-(2-Bromo-5-chloro-phenylsulfanyl)-4-chloro-phenyl]-N-(4-sulfamoyl-phenyl)-acetamide]
191.8 to 192.5 | CCc1ccc(CC(=O)Nc2ccc(S(N)(=O)=O)cc2Cl)cc1Oc1cc(C#N)cc(C(F)F)c1 [Compound I-140, N-(2-Chloro-4-sulfamoyl-phenyl)-2-[3-(3-cyano-5-difluoromethyl-phenoxy)-4-ethyl-phenyl]-acetamide]
194 to 194.9 | Cc1ccc(CC(=O)Nc2ccc(S(N)(=O)=O)cc2Cl)cc1Oc1cc(Cl)cc(C#N)c1 [Compound I-123, 2-[3-(3-Chloro-5-cyano-phenoxy)-4-methyl-phenyl]-N-(2-chloro-4-sulfamoyl-phenyl)-acetamide]
198.5 to 201 | Cc1cc(S(N)(=O)=O)ccc1NC(=O)Cc1ccc(Cl)c(Oc2cc(C#N)cc(C(C)(F)F)c2)c1F [Compound I-96, 2-{4-Chloro-3-[3-cyano-5-(1,1-difluoro-ethyl)-phenoxy]-2-fluoro-phenyl}-N-(2-methyl-4-sulfamoyl-phenyl)-acetamide]
165 to 166.6 | N#Cc1cc(Cl)cc(Oc2c(Br)ccc(CC(=O)Nc3ccc(S(N)(=O)=O)cc3Cl)c2F)c1 [Compound I-109, 2-[4-Bromo-3-(3-chloro-5-cyano-phenoxy)-2-fluoro-phenyl]-N-(2-chloro-4-sulfamoyl-phenyl)-acetamide]
177 to 181 | Cc1cc(S(=O)(=O)NCCN2CCOCC2)ccc1NC(=O)Cc1ccc(C)c(Oc2cc(Cl)cc(C#N)c2)c1 [Compound I-118, 2-[3-(3-Chloro-5-cyano-phenoxy)-4-methyl-phenyl]-N-[2-methyl-4-(2-morpholin-4-yl-ethylsulfamoyl)-phenyl]-acetamide]
213.2 to 219.6 | CCc1ccc(CC(=O)Nc2ccc(S(N)(=O)=O)cc2C)cc1Oc1cc(Cl)cc(Br)c1Cl [Compound I-36, 2-[3-(3-Bromo-2,5-dichloro-phenoxy)-4-ethyl-phenyl]-N-(2-methyl-4-sulfamoyl-phenyl)-acetamide]
263 to 264.4 | Cc1cc(S(N)(=O)=O)ccc1NC(=O)Cc1ccc(Cl)c(C(=O)c2cc(Cl)cc(Cl)c2)c1 [Compound I-252, 2-[4-Chloro-3-(3,5-dichloro-benzoyl)-phenyl]-N-(2-methyl-4-sulfamoyl-phenyl)-acetamide]
219 to 221.4 | N#Cc1cc(Oc2cc(CC(=O)Nc3ccc(S(N)(=O)=O)cc3)ccc2Cl)cc(C(F)(F)F)c1 [Compound I-88, 2-[4-Chloro-3-(3-cyano-5-trifluoromethyl-phenoxy)-phenyl]-N-(4-sulfamoyl-phenyl)-acetamide]
167.9 to 170.5 | CCc1ccc(CC(=O)Nc2ccc(S(N)(=O)=O)cc2)cc1Oc1cc(C#N)cc(F)c1Cl [Compound I-49, 2-[3-(2-Chloro-5-cyano-3-fluoro-phenoxy)-4-ethyl-phenyl]-N-(4-sulfamoyl-phenyl)-acetamide]
204.4 to 207.3 | CNS(=O)(=O)c1ccc(NC(=O)Cc2ccc(Cl)c(Oc3cc(Cl)cc(C#N)c3)c2F)c(C)c1 [Compound I-108, 2-[4-Chloro-3-(3-chloro-5-cyano-phenoxy)-2-fluoro-phenyl]-N-(2-methyl-4-methylsulfamoyl-phenyl)-acetamide]
180.5 to 181.4 | Cc1cc(S(=O)(=O)CC(=O)O)ccc1NC(=O)Cc1ccc(C)c(Oc2cc(Cl)cc(C#N)c2)c1 [Compound I-152, (4-{2-[3-(3-Chloro-5-cyano-phenoxy)-4-methyl-phenyl]-acetylamino}-3-methyl-benzenesulfonyl)-acetic acid]
196.4 to 198.7 | N#Cc1cccc(Oc2cc(CC(=O)Nc3ccc(S(N)(=O)=O)cc3)cc3ccoc23)c1 [Compound I-144, 2-[7-(3-Cyano-phenoxy)-benzofuran-5-yl]-N-(4-sulfamoyl-phenyl)-acetamide]
155.6 to 156.6 | CSCCNS(=O)(=O)c1ccc(NC(=O)Cc2ccc(C)c(Oc3cc(Cl)cc(C#N)c3)c2)c(C)c1 [Compound I-130, 2-[3-(3-Chloro-5-cyano-phenoxy)-4-methyl-phenyl]-N-[2-methyl-4-(2-methylsulfanyl-ethylsulfamoyl)-phenyl]-acetamide]
146.3 to 147.1 | CCc1ccc(CC(=O)Nc2ccccc2Cl)cc1Oc1cc(Cl)ccc1Cl [Compound I-21, N-(2-Chloro-phenyl)-2-[3-(2,5-dichloro-phenoxy)-4-ethyl-phenyl]-acetamide]
230.1 to 230.7 | Cc1cc(C#N)cc(Oc2c(Cl)ccc(CC(=O)Nc3ccc(S(N)(=O)=O)cc3C)c2F)n1 [Compound I-124, 2-[4-Chloro-3-(4-cyano-6-methyl-pyridin-2-yloxy)-2-fluoro-phenyl]-N-(2-methyl-4-sulfamoyl-phenyl)-acetamide]
151.9 to 155.3 | Cc1cc(S(=O)(=O)N2CCSCC2)ccc1NC(=O)Cc1ccc(C)c(Oc2cc(Cl)cc(C#N)c2)c1 [Compound I-117, 2-[3-(3-Chloro-5-cyano-phenoxy)-4-methyl-phenyl]-N-[2-methyl-4-(thiomorpholine-4-sulfonyl)-phenyl]-acetamide]
